Experimental data from patent publication US11802120B2, “Fused cyclic urea derivatives as CRHR2 antagonist” (RaQualia Pharma Inc., priority 2018, dated 2023).

Molecular target: T1, human CRHR2-alpha (Homo sapiens, UniProt Q13324)
T1 sequence (Q13324 1-411): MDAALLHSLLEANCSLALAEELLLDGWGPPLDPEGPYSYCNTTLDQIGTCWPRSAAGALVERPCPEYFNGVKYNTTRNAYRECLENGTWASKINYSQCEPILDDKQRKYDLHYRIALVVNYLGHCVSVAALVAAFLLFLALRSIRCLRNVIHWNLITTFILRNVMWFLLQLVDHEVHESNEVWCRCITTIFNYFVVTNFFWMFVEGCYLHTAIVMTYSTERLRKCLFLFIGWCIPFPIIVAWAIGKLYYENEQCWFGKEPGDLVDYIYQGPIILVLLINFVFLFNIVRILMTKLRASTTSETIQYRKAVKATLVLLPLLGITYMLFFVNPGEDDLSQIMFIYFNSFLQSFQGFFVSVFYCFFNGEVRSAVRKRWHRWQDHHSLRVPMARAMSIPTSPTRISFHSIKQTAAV
Assay: cAMP functional assay for human CRHR2 (LANCE Ultra cAMP, TR-FRET)
Type: cell-based
Conditions: CHO-K1 cells expressing human CRHR2-alpha, agonist human urocortin2 at EC80, cAMP; read-out: IC50 against CRHR2
Outline: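 Inhibition of agonist-driven cAMP was assessed in recombinant CHO-K1 cells at 25° C, using 30 min compound pretreatment and 30 min stimulation with EC80 human urocortin2 (CRHR2) or CRF (CRHR1). IC50 came from dose-response fitting.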

Compound	IC50
Cc1ncc(Cl)cc1C(=O)N[C@H]1CC[C@H](Cn2c(=O)n(-c3ccc4c(=O)[nH]cnc4c3)c3ccccc32)CC1 [Example 305, 5-chloro-2-methyl-N-((1r,4r)-4-((2-oxo-3-(4-oxo-3,4-dihydroquinazolin-7-yl)-2,3-dihydro-1H-benzol[d]imidazol-1-yl)methyl)cyclohexyl)nicotinamide]	< 0.3 µM
Cc1ncc(Cl)cc1C(=O)N[C@H]1CC[C@H](Cn2c(=O)n(-c3ccc(C=O)cc3C#N)c3ccccc32)CC1 [Example 306, 5-chloro-N-((1r,4r)-4-((3-(2-cyano-4-formylphenyl)-2-oxo-2,3-dihydro-1H-benzo[d]imidazol-1-yl)methyl)cyclo-hexyl)-2-methylnicotinamide]	< 0.3 µM
Cc1ncc(Cl)cc1C(=O)N[C@H]1CC[C@H](Cn2c(=O)n(-c3cc(Br)ccc3C#N)c3ccccc32)CC1 [Example 307, N-((1r,4r)-4-((3-(5-bromo-2-cyanophenyl)-2-oxo-2,3-dihydro-1H-benzo[d]imidazol-1-yl)methyl)cyclohexyl)-5-chloro-2-methylnicotinamide]	< 0.3 µM
Cc1cc(C#N)c(-n2c(=O)n(C[C@H]3CC[C@H](NC(=O)c4cc(Cl)cnc4C)CC3)c3ccccc32)cn1 [Example 308, 5-chloro-N-((1r,4r)-4-((3-(4-cyano-6-methylpyridin-3-yl)-2-oxo-2,3-dihydro-1H-benzo[d]imidazol-1-yl)methyl)cyclohexyl)-2-methylnicotinamide]	< 0.3 µM
Cc1ncc(Cl)cc1C(=O)N[C@H]1CC[C@H](Cn2c(=O)n(-c3cccc(N(C)C)c3C#N)c3ccccc32)CC1 [Example 309, 5-choro-N-((1r,4r)-4-((3-(2-cyano-3-(dimethylamino)phenyl)-2-oxo-2,3-dihydro-1H-benzo[d]imidazol-1-yl)methyl)cyclohexyl)-2-methylnicotinamide]	< 0.3 µM
COCCNc1cc(C#N)c(-n2c(=O)n(C[C@H]3CC[C@H](NC(=O)c4cc(Cl)cnc4C)CC3)c3ccccc32)cn1 [Example 310, 5-chloro-N-((1r,4r)-4-((3-(4-cyano-6-((2-methoxyethyl)amino)pyridin-3-yl)-2-oxo-2,3-dihydro-1H-benzo[d]imidazol-1-yl)methyl)cyclohexyl)-2-methylnicotinamide]	< 0.3 µM
N#Cc1ccncc1-n1c(=O)n(C[C@H]2CC[C@H](NC(=O)c3cc(Cl)cnc3C(F)(F)F)CC2)c2ccccc21 [Example 311, 5-chloro-N-((1r,4r)-4-((3-(4-cyanopyridin-3-yl)-2-oxo-2,3-dihydro-1H-benzo[d]imidazol-1-yl)methyl)cyclo-hexyl)-2-(trifluoromethyl) nicotinamide]	< 0.3 µM
N#Cc1cccnc1-n1c(=O)n(C[C@H]2CC[C@H](NC(=O)c3cc(Cl)cnc3C(F)(F)F)CC2)c2ccccc21 [Example 312, 5-chloro-N-((1r,4r)-4-((3-(3-cyanopyridin-2-yl)-2-oxo-2,3-dihydro-1H-benzo[d]imidazol-1-yl)methyl)cyclo-hexyl)-2-(trifluoromethyl) nicotinamide]	< 0.3 µM
CNC(=O)c1cc(C)c(-n2c(=O)n(C[C@H]3CC[C@H](NC(=O)c4cc(Cl)cnc4C(F)(F)F)CC3)c3ccccc32)cn1 [Example 313, 5-(3-(((1r,4r)-4-(5-chloro-2-(trifluoromethyl)nico-tinamido)cyclohexyl)methyl)-2-oxo-2,3-dihydro-1H-benzo[d]imidazol-1-yl)-N,4-dimethylpicolinamide]	< 0.3 µM
O=C(N[C@H]1CC[C@H](Cn2c(=O)n(Cc3cscn3)c3ccccc32)CC1)c1cc(Cl)cnc1C(F)(F)F [Example 314, 5-chloro-N-((1r,4r)-4-((2-oxo-3-(thiazol-4-ylmethyl)-2,3-dihydro-1H-benzo[d]imidazol-1-yl)methyl)cyclo-hexyl)-2-(trifluoromethyl) nicotinamide]	< 0.3 µM
Cc1ccc(-n2c(=O)n(C[C@H]3CC[C@H](NC(=O)c4cc(Cl)cnc4C(F)(F)F)CC3)c3ccccc32)c(C)n1 [Example 315, 5-chloro-N-((1r,4r)-4-((3-(2,6-dimethylpyridin-3-yl)-2-oxo-2,3-dihydro-1H-benzo [d]imidazol-1-yl)methyl)cyclohexyl)-2-(trifluoro-methyl)nicotinamide]	< 0.3 µM
Cc1cc(-n2c(=O)n(C[C@H]3CC[C@H](NC(=O)c4cc(Cl)cnc4C(F)(F)F)CC3)c3ccccc32)ccn1 [Example 316, 5-chloro-N-((1r,4r)-4-((3-(2-methylpyridin-4-yl)-2-oxo-2,3-dihydro-1H-benzo [d]imidazol-1-yl)methyl)cyclohexyl)-2-(trifluoro-methyl)nicotinamide]	< 0.3 µM
CNC(=O)c1ccc(-n2c(=O)n(C[C@H]3CC[C@H](NC(=O)c4cc(Cl)cnc4C4CC4)CC3)c3ccccc32)cn1 [Example 317, 5-(3-(((1r,4r)-4-(5-chloro-2-cyclopropylnicotinamido)cyclohexyl)methyl)-2-oxo-2,3-dihydro-1H-benzo[d]imidazol-1-yl)-N-methyl-picolinamide]	< 0.3 µM
Cc1ncc(Cl)cc1C(=O)N[C@H]1CC[C@H](Cn2c(=O)n(-c3cccnc3C(F)(F)F)c3ccccc32)CC1 [Example 318, 5-chloro-2-methyl-N-((1r,4r)-4-((2-oxo-3-(2-(trifluoro-methyl)pyridin-3-yl)-2,3-dihydro-1H-benzo[d]imidazol-1-yl)methyl)cyclohexyl) nicotinamide]	< 0.3 µM
Cc1ncc(Cl)cc1C(=O)N[C@H]1CC[C@H](Cn2c(=O)n(-c3cnc4c(N)ncnc4c3)c3ccccc32)CC1 [Example 319, N-((1r,4r)-4-((3-(4-aminopyrido[3,2-d]pyrimidin-7-yl)-2-oxo-2,3-dihydro-1H-benzo[d]imidazol-1-yl)methyl)cyclohexyl)-5-chloro-2-methylnicotinamide]	< 0.3 µM
Cc1ncc(Cl)cc1C(=O)N[C@H]1CC[C@H](Cn2c(=O)n(-c3ccncc3C(F)(F)F)c3ccccc32)CC1 [Example 320, 5-chloro-2-methyl-N-((1r,4r)-4-((2-oxo-3-(3-(trifluoro-methyl)pyridin-4-yl)-2,3-dihydro-1H-benzo[d]imidazol-1-yl)methyl)cyclohexyl) nicotinamide]	< 0.3 µM
CNC(=O)c1ccc(-n2c(=O)n(C[C@H]3CC[C@H](NC(=O)c4cc(Cl)cnc4CCOC)CC3)c3ccccc32)cn1 [Example 321, 5-(3-(((1r,4r)-4-(5-chloro-2-(2-methoxyethyl)nico-tinamido)cyclohexyl)methyl)-2-oxo-2,3-dihydro-1H-benzo [d]imidazol-1-yl)-N-methylpicolinamide]	< 0.3 µM
CNC(=O)c1ccc(-n2c(=O)n(C[C@H]3CC[C@H](NC(=O)c4cc(Cl)cnc4C4CCC4)CC3)c3ccccc32)cn1 [Example 322, 5-(3-(((1r,4r)-4-(5-chloro-2-cyclobutylnicotinamido)cyclohexyl)methyl)-2-oxo-2,3-dihydro-1H-benzo[d]imidazol-1-yl)-N-methyl-picolinamide]	< 0.3 µM
COc1ccc(-n2c(=O)n(C[C@H]3CC[C@H](NC(=O)c4cc(Cl)cnc4C(F)F)CC3)c3ccccc32)cn1 [Example 323, 5-chloro-2-(difluoromethyl)-N-((1r,4r)-4-((3-(6-methoxy-pyridin-3-yl)-2-oxo-2,3-di-hydro-1H-benzo[d]imidazol-1-yl)methyl)cyclohexyl)nico-tinamide]	< 0.3 µM
